Measurements as given in ChEMBL document CHEMBL1201862, “PubChem BioAssay data set” (2004).
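Five concentrations, 48 hours, 96-well plates. At the GI50, growth is halved.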 Active and inactive are the calls of the source. Rule as the data show it: active = GI50 up to about 1.1 µM and inactive = higher.

Assays:
Experiment in all cases: DTP human tumour cell line panel, 48 h
[1] = system: T47D
[2] = system: XF498
[3] = system: DMS-114
[4] = system: M19-MEL
[5] = system: LXFL 529
[6] = system: KM-20L2
[7] = system: RXF 631
[8] = system: SNB-78
[9] = system: HOP-18

Compound | GI50 [1] | GI50 [3] | GI50 [4] | GI50 [5] | GI50 [6] | further results
CC(=O)C(=[N+]=[N-])C(=O)OC(C)(C)C#N | > 10 µM (inactive) | – | – | – | – | –
CCOC(=O)c1cccc(=O)c(C(=O)OCC)c1 | – | 46.8 µM (inactive) | 53.1 µM (inactive) | 38.3 µM (inactive) | 97.3 µM (inactive) | GI50 [2]: 46.1 µM (inactive); GI50 [7]: 67 µM (inactive); GI50 [8]: 57.3 µM (inactive)
COc1ccc(-c2oc(/C=N/NC(N)=S)c([N+](=O)[O-])c2-c2ccc(OC)c(OC)c2)cc1OC | – | 19.4 µM (inactive) | 24.2 µM (inactive) | 20.3 µM (inactive) | 18.2 µM (inactive) | GI50 [2]: 26.7 µM (inactive); GI50 [7]: 30.4 µM (inactive)
CCCCCc1c(Cl)nc(Cl)nc1Cl | 19.4 µM (inactive) | – | – | – | – | –
O=S1(=O)c2cnccc2N=C(NCc2cccc3ccccc23)N1c1ccccc1 | 54.7 µM (inactive) | – | – | – | – | –
CC(C)(C)c1cc(C#N)c2c(c1)C(=O)OC2(c1ccccc1)c1ccccc1C#N (configuration not stated) | – | > 100 µM (inactive) | > 100 µM (inactive) | > 100 µM (inactive) | > 100 µM (inactive) | GI50 [2]: > 100 µM (inactive); GI50 [9]: > 100 µM (inactive); GI50 [8]: > 100 µM (inactive)
COC(=O)[C@H]1NC(=O)CCSSC1(C)C | > 100 µM (inactive) | – | – | – | – | –
Cc1ccc(C2=Nn3c(nc4sc5c(c4c3=O)CCCC5)SC2)cc1 | > 100 µM (inactive) | – | – | – | – | –
Cc1nc2sc3ccccc3n2c(=O)c1/N=N/c1ccc(Br)cc1 | 90.8 µM (inactive) | – | – | – | – | –
O=S(=O)(O)c1cc(Nc2ccnc3ccccc23)c2c(S(=O)(=O)O)cc(S(=O)(=O)O)cc2c1 | > 100 µM (inactive) | – | – | – | – | –
CCOC(=O)c1ccc(N[C@@H]2c3cc4c(cc3C(C3=CC(=O)C(=O)C(OC)=C3)[C@H]3C(=O)OCC32)OCO4)cc1 (some centres not stated) | – | 1.79 µM (inactive) | 6.1 µM (inactive) | 6.5 µM (inactive) | 6.37 µM (inactive) | GI50 [2]: 1.48 µM (inactive); GI50 [7]: 1.91 µM (inactive); GI50 [8]: 8.69 µM (inactive)
O=C(CSC(=S)N1CCCCC1)Nc1nc2c(s1)CCCC2 | – | 53.2 µM (inactive) | 32.9 µM (inactive) | 32.1 µM (inactive) | 46 µM (inactive) | GI50 [2]: 19.3 µM (inactive); GI50 [8]: > 100 µM (inactive)
O=C(Nc1ccc(Cl)cc1)c1cc([N+](=O)[O-])ccc1O | – | 2.35 µM (inactive) | 3.52 µM (inactive) | 2.9 µM (inactive) | 4.49 µM (inactive) | GI50 [2]: 2.82 µM (inactive); GI50 [9]: 1.58 µM (inactive); GI50 [7]: 2.9 µM (inactive)
N#CC(C#N)[C@@H]1CCC=C(Sc2ccccc2)[C@H]1Sc1ccccc1 | 1.45 µM (inactive) | – | – | – | – | –
Cc1cc(NC(=O)NC(=O)c2ccccc2N)ccc1Oc1ncc(Br)cn1 | 0.359 µM (active) | < 0.01 µM (active) | 0.0231 µM (active) | < 0.0179 µM (active) | 0.016 µM (active) | GI50 [2]: 0.0334 µM (active); GI50 [9]: 28.8 µM (inactive)
CC(C)(C)OC(=O)N(O)CCCn1cnc2c(NC3CC3)ncnc21 | > 100 µM (inactive) | – | – | – | – | –
C=CCC(SC)C1=C(C)C(=O)c2ccccc21 (configuration not stated) | > 10 µM (inactive) | – | – | – | – | –
N#Cc1c(-c2ccccc2)c(/C=N/c2cccc(C(F)(F)F)c2)c(=O)n2c1[nH]c1ccccc12 | 35.2 µM (inactive) | – | – | – | – | –
Cc1c(C)c2c(c(N)c1C#N)C(=O)N(N)C2=O | > 100 µM (inactive) | – | – | – | – | –
Cc1nc2ccccc2c(=O)n1NC(=O)c1ccc(N)cc1 | > 100 µM (inactive) | – | – | – | – | –
CCCCc1c2c(nc3c1CC/C(=C\c1ccc([N+](=O)[O-])cc1)C3=O)CCCC2 | – | 2.1 µM (inactive) | 2.29 µM (inactive) | 1.37 µM (inactive) | 2.01 µM (inactive) | GI50 [8]: 1.96 µM (inactive)
COc1cc(Oc2c(O)c(C)c(OC)c(C(C)=O)c2O)c(C(C)=O)c(O)c1C | – | 47.5 µM (inactive) | 55.5 µM (inactive) | 49.5 µM (inactive) | 63.8 µM (inactive) | GI50 [2]: 59.6 µM (inactive); GI50 [7]: > 100 µM (inactive); GI50 [8]: > 100 µM (inactive)
O=C(/C=C\c1ccccc1)Oc1ccc(/C=C2\CCC/C(=C\c3ccc(OC(=O)/C=C\c4ccccc4)cc3)C2=O)cc1 | > 100 µM (inactive) | – | – | – | – | –
COC(=O)C#Cc1ccc([N+](=O)[O-])cc1 | 1.45 µM (inactive) | – | – | – | – | –
C(=N\c1ccc(-c2nc3ccccc3s2)cc1)/c1ccc[nH]1 | 13.4 µM (inactive) | – | – | – | – | –
[O-][N+]1=C(c2ccccc2)/C(=C2/C(c3ccccc3)=[N+]([O-])c3ccccc32)Cc2ccccc21 | 16.3 µM (inactive) | – | – | – | – | –
O=S1(=O)[C@H](c2ccccc2)c2c(-c3ccccc3)sc(-c3ccccc3)c2[C@@H]1c1ccccc1 | – | > 100 µM (inactive) | > 100 µM (inactive) | 88.1 µM (inactive) | > 100 µM (inactive) | GI50 [9]: 77.1 µM (inactive)
C/C(=C\CBr)CCC(Br)C(C)(C)Cl (configuration not stated) | – | > 100 µM (inactive) | > 100 µM (inactive) | > 100 µM (inactive) | – | GI50 [9]: > 100 µM (inactive); GI50 [8]: > 100 µM (inactive)
COc1cc(/C=C/C(=O)CC(=O)/C=C/c2cc(OC)c(O)c(OC)c2)cc(OC)c1O | 6.5 µM (inactive) | – | – | – | – | –
